The source of these data is patent EP0195433A1, “Amide derivatives processes for preparing them and use thereof” (GREEN CROSS CORPORATION, priority 1985, dated 1986).

One experiment deals with Stress ulcers. The experiment is described as follows: Stress ulcer (restraint and water immersion). The class given is in vivo, Wistar male rats. The settings on record: 20 mg/kg intraperitoneally; for Ulcer index: restrained and immersed in water (22 ± 1°C) for 7 hours. As to the method:
Stress ulcers were induced in Wistar male rats in accordance with the method described in K. Takagi and S. Okabe; Jpn. J. Pharmacol., 18, 9 (1968).
The procedures of (2) were repeated except that the rats were restrained immediately after the administration of a selected test compound and immersed in water (22 ± 1°C) for 7 hours.

The subject of experiment [1] is secretion of gastric juice. The experiment is described as follows: Inhibition of gastric juice secretion, pyloric ligation (method of Shay et al.). The class given is in vivo, Wistar male rats. The following applies: 25 mg/kg, i.p., 4 hours after pyloric ligation; for Total Peptic Activity: casein as substrate; for Total Acid Output: titration with 0.02N NaOH. How it is done: The activity of each of the test compounds in inhibiting the secretion of gastric juice was measured by pyloric ligation in accordance with the method of Shay et al. described in H. Shay, S.A. Komarov, S.S. Fels et al.; Gastroenterology, 5, 43 (1945). Groups each consisting of 8 - 10 Wistar male rats weighing 150 - 200 g which had been starved for 48 hours were subjected to abdominal incision under ether anesthetization. After pyloric ligation, the incised abdomen of each animal was closed and the animal was kept away from food and water for 4 hours. The test compound was suspended in 5% gum arabic (in physiological saline) to give a concentration of 5 mg/ml, and the suspension was administered intraperitoneally to each rat in a dose of 25 mg/kg immediately after the closure of the incised abdomen. Four hours later, each rat was sacrificed with chloroform and the stomach was extracted. The gastric juice contained in the stomach was withdrawn and checked for its volume, total acidity and total pepsin activity.
The total acidity was determined by titration with 0.02N NaOH using phenolphthalein as an indicator. The total pepsin activity was determined in accordance with the method of Anson; Brit. J. Pharmacol., 13, 54 (1958) using casein as a substrate.

The subject of a further experiment is Aspirin ulcers. The experiment is described as follows: Aspirin ulcer. In kind it is in vivo, Wistar male rats. The settings on record: 20 mg/kg intraperitoneally, 7 hours; for Ulcer index: aspirin 150 mg/kg orally, total length of ulcers. How it is done: Aspirin ulcers were produced in Wistar male rats (body weight: 150 - 200 g) in accordance with the method described in S. Okabe, K. Takeuchi et al.; Jpn. J. Pharmacol., 24, 363 (1974).
The rats were starved for 24 hours and subjected to pyloric ligation. Immediately thereafter, 150 mg/kg of aspirin suspended in 5% gum arabic was administrered orally to each rat which was simultaneously injected with a selected test compound (20 mg/kg) intraperitoneally.
The rats were kept away from food and water for 7 hours. Thereafter, the stomach was extracted from each animal under ether anesthetization and fixed in formalin. The total length of the ulcers occurring in the glands of the extracted stomach was measured and used as an ulcer index.

For the next experiment, the system named is HCl-ethanol ulcers. Kind of experiment: HCl-ethanol ulcer. The settings on record: for Percent inhibition: 20 mg/kg intraperitoneally; for Ulcer index: 20 mg/kg intraperitoneally 2 hours before 1.5 ml of 15 mM HCl in 60% ethanol orally, 1 hour. In kind it is in vivo, Wistar male rats. How it is done:
HCl-ethanol ulcers were induced in Wistar male rats in accordance with the method described in S. Okabe, S. Ueki et al.; Oyo Yakuri, 27, 829 (1984).
The procedures of (2) were repeated except that 2 hours after the intraperitoneal injection of a selected test compound, 1.5 ml of 15 mM HC1 in 60% ethanol was administrered orally to each rat, which thereafter was kept for an additional 1 hour.

For a further experiment, the system named is carrageenan paw edema. Kind of experiment: Anti-inflammatory activity, carrageenan paw edema method. The class given is in vivo, SD male rats. The following applies: 25 mg/kg, i.p., 30 minutes before carrageenan; four hours after injection. As to the method: SD male rats (body weight: 150 - 180 g) were starved overnight and 25 mg/kg of a selected test compound was administered intraperitoneally to each rat. Thirty minutes later, 0.1 ml of a 1.5% solution of carrageenan in physiological saline was injected under the skin of the paw of a hind leg. Four hours after injection, the volume of the treated leg was measured with a mercury manometer and compared with the value prior to carrageenan injection in order to calculate the percentages of edema and its inhibition. Each of the test compounds was administered in a concentration of 5 mg/ml as a suspension in 5% gum arabic in physiological saline.
A general note: Carrageenan injected into the paw causes an acute inflammation.

The subject of a further experiment is granuloma pouch. Kind of experiment: Anti-inflammatory activity, granuloma pouch method. The class given is in vivo, SD male rats. The following applies: 25 mg/kg/day orally for 8 consecutive days, eight days after croton oil injection; for Weight of Pouch: wet weight. As to the method:
Pouches were made under the dorsal skin of SD male rats (body weight: 150 - 180 g) by injecting 20 ml of N2 gas in accordance with the method described in E. Itoga and Y. Miyake; Oyo yakuri, 66, 316 (1970). The rats were subsequently injected with 1 ml of 1% croton oil dissolved in cottonseed oil. Eight days after injection, the wet weight of each pouch and the volume of exudate therefrom were measured. Each of the test compounds was administered orally for 8 consecutive days on a single-dose-a-day basis..

The subject of the next experiment is Acetic acid ulcers. The experiment is described as follows: Acetic acid ulcer. The class given is in vivo, Wistar male rats. The following applies: 14 consecutive days. As to the method:
.Acetic acid ulcers were induced in Wistar male rats in accordance with the method described in K. Takagi, S. Okabe et al.,; Jpn. J. Pharmacol., 19, 418 (1969).
Starting on the day of operation, each of the test compounds was administered orally to each rat for 14 consecutive days on a two-dose-a-day basis. The rats were starved for 24 hours after administration of the final dose. They then were sacrificed with chloroform and the stomach was extracted from each animal and fixed in formalin. The product of the length and breadth of each […] was determined and used as an ulcer index.

Consider `CCCCCCCCC=CC(=O)NCCSCC(N)=O` [Compound 2, NH2COCH2SCH2CH2NH-COCH=CH(CH2)7CH3], for which, in the experiment on Stress ulcers, the Percent inhibition is listed as 69.1% and the Ulcer index is recorded as 9.0. Further, in experiment [1], the “Gastric Volume” value was determined as 0.97 ml/100 g wt, the “Total Peptic Activity” value is 70.9 mg as tyrosine/ 100 g wt and the “Total Acid Output” value is recorded as 97.4 μ Eq/100 g wt. In the experiment on Aspirin ulcers, the Percent inhibition came out at 76.4% and the Ulcer index is listed as 4.0. In the experiment on HCl-ethanol ulcers, this compound gave a Percent inhibition of 70.5% and a Ulcer index of 12.2.

Take `CCCCCC=CC(=O)NCCSSCCNC(=O)C=CCCCCC` [Compound 3, [SCH2CH2NH-COCH=CH(CH2)4CH3]2]: in the experiment with carrageenan paw edema, the Percent inhibitaion worked out at 29.7% and the Percentage of edema is listed as 36.3%. For the same compound, in the experiment on granuloma pouch, the “Volume of Exudate” value came to 8.5 mL and the “Weight of Pouch” value is listed as 4.34 g.

On to `CCCCCCCCC=CC(=O)O` [2-Undecenoic acid, reference compound], for which, in experiment [1], the “Gastric Volume” value is recorded as 2.46 ml/100 g wt, the “Total Peptic Activity” value worked out at 159.8 mg as tyrosine/ 100 g wt and the “Total Acid Output” value is 318.1 μ Eq/100 g wt.

In the experiment with carrageenan paw edema, `CCCCCC=CC(=O)NCCSCC(N)=O` [Compound 4, NH2COCH2SCH2CH2NH-COCH=CH(CH2)4CH3] came in with a Percent inhibitaion of 45.2% and a Percentage of edema of 28.3%. Moreover, in the experiment with granuloma pouch, the “Volume of Exudate” value came to 10.6 mL and the “Weight of Pouch” value worked out at 3.81 g.

With `CCCCCCCCC=CC(=O)NCCSSCCNC(=O)C=CCCCCCCCC` [Compound 1, [SCH2CH2NH-COCH=CH(CH2)7CH3]2], in experiment [1], the “Gastric Volume” value worked out at 2.10 ml/100 g wt, the “Total Peptic Activity” value was 139.9 mg as tyrosine/ 100 g wt and the “Total Acid Output” value is 229.2 μ Eq/100 g wt.

In the experiment on carrageenan paw edema, `CCCCCCCCCCC=CC(=O)NCCSSCCNC(=O)C=CCCCCCCCCCC` [Compound 7, [SCH2CH2NH-COCH=CH(CH2)9CH3]2] had a Percent inhibitaion of 30.7% and a Percentage of edema of 33.4%.

In the experiment with carrageenan paw edema, `CCCCCCCCCCC=CC(=O)NCCSCC(N)=O` [Compound 8, NH2COCH2SCH2CH2NH-COCH=CH(CH2)9CH3] returned a Percent inhibitaion of 49.6% and a Percentage of edema of 24.3%.

For `CCCCCCCC=CC(=O)NCCSCC(N)=O` [Compound 6, NH2COCH2SCH2CH2NH-COCH=CH(CH2)6CH3], the Percent inhibition with Stress ulcers was 54.3%; in the experiment on Aspirin ulcers, 49.7%; in the experiment with HCl-ethanol ulcers, 69.7%. Also, the Ulcer index in the experiment with Stress ulcers turned out to be 13.3; in the experiment on Acetic acid ulcers (100 x 2 mg/kg/day orally) it was 45.8; in the experiment on Acetic acid ulcers (200 x 2 mg/kg/day orally), 42.1; in the experiment on Acetic acid ulcers (400 x 2 mg/kg/day orally), 38.3; with Aspirin ulcers, 8.6; with HCl-ethanol ulcers, 12.5. In addition, in experiment [1], the “Gastric Volume” value was determined as 0.93 ml/100 g wt. In addition, in experiment [1], the “Total Peptic Activity” value came out at 81.5 mg as tyrosine/ 100 g wt. For the same compound, in experiment [1], the “Total Acid Output” value is listed as 91.1 μ Eq/100 g wt. The Percent healing with Acetic acid ulcers (100 x 2 mg/kg/day orally) is given as 21.0%; with Acetic acid ulcers (200 x 2 mg/kg/day orally), 27.4%; with Acetic acid ulcers (400 x 2 mg/kg/day orally), 34.0%.
